From patent US20240360194A1, “New Peptides as Potent and Selective GIP Receptor Agonists” (Sanofi, priority 2021, published 2024)
In brackets after ≈: the same amount, converted by molar mass. Like-named read-outs stand apart in the source and are kept apart here. Numbered stars: 1 amine (or outer) side, 2 acyl side, 3 side chain; on linkers, the order of the positions; unused ones are H or OH. Square brackets hold non-standard residues; d marks the D form. Side chains are listed from the residue outwards. Peptide text beside a SMILES is read from it. * marks the point of attachment. C18 diacid = O=C(O)CCCCCCCCCCCCCCCCC(=O)*; γGlu = O=C(O)[C@H](CCC(=O)[*:2])N[*:1]; AEEA = NCCOCCOCC(=O)O; Aib = CC(C)(N)C(=O)O

Tests used:
[1] = Solubility assessment (UHPLC-UV of supernatant, target 10 mg/ml); assay type: physicochemical; conditions: for Soluble amount: pH 7.4
Procedure, shortened: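 Peptides at 10 mg/ml (purity-corrected) in 100 mM phosphate pH 7.4, optionally with 2.7 mg/ml m-cresol; gentle agitation 1 h, then 5° C. overnight (24 h). Supernatant after 15 min centrifugation at 2500 RCF quantified by UHPLC-UV, with sequence-based extinction coefficients.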

[2] = ThT assay for the assessment of physical stability (fibrillation); assay type: physicochemical; conditions: ThT buffer system A: 100 mM phosphate buffer pH 7.4; 3 mg/ml, 37° C., shaking
Description: Low physical stability of a peptide solution may lead to amyloid fibril formation, which is observed as well-ordered, thread-like macromolecular structures in the sample, which eventually may lead to gel formation. Thioflavin T (ThT) is widely used to visualize and quantify the presence of misfolded protein aggregates [Biancalana et al., Biochim. Biophys. Acta 2010, 1804(7), 1405]. […] Enzymol. 1999, 309, 274]. The time course for fibril formation often follows the characteristic shape of a sigmoidal curve and can be separated into three regions: a lag phase, a fast growth phase, and a plateau phase. The typical fibril formation process starts with the lag phase in which the amount of partially folded peptide turned into fibrils is not significant enough to be detected. The lag-time corresponds to the time the critical mass of the nucleus is built. Afterwards, a drastic elongation phase follows, and fibril concentration increases rapidly. Investigations were carried out to determine fibrillation tendencies under stress conditions by shaking at 37° C. within Fluoroskan Ascent FL or Fluoroskan Ascent. For the tests in Fluoroskan Ascent (FL), 200 μl sample were placed into a 96-well mictrotiter plate PS, flat bottom, Greiner Fluotrac No. 655076. Plates were sealed with Scotch Tape (Qiagen). Samples were stressed by continuous cycles of 10 sec shaking at 960 rpm and 50 sec rest period at 37° C. The kinetic was monitored by measuring fluorescence intensity every 20 min. Peptides were diluted in a buffer system to a final concentration of 3 mg/ml. 20 μl of a 10.1 mM ThT solution in H2O were added to 2 ml of peptide solution to receive a final concentration of 100 μM ThT. For each sample eight replicates were tested. • ThT buffer system A) 100 mM phosphate buffer pH 7.4 • ThT buffer system B) 100 mM phosphate buffer pH 7.4, 2.7 mg/ml m-cresol Lag time in hours (h) in Thioflavin T (ThT) assay of peptide samples was determined in ThT buffer system A as described in Methods.

[3] = target: human GLP-1 receptor (hGLP-1R) (Homo sapiens, UniProt P43220); assay: Binding assay, displacement of [125I]GLP-1 from HEK-293 membranes over-expressing GLP-1R (SPA); conditions: [125I]GLP-1 displacement
human GLP-1 receptor (hGLP-1R), sequence (P43220 24-463): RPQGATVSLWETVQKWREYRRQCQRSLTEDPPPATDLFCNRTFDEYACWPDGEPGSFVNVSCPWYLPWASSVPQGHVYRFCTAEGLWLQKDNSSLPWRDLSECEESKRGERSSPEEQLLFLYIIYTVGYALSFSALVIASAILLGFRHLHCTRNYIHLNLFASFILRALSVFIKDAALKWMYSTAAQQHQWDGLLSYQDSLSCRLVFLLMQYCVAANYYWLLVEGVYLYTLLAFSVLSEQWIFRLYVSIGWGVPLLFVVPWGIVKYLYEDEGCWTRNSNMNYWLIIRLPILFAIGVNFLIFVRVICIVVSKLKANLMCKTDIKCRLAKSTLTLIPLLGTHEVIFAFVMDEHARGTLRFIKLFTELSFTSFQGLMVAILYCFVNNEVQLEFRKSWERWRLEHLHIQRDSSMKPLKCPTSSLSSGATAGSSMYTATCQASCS
Procedure, shortened: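 Membranes from HEK-293 cells over-expressing human GIPR or GLP-1R, isolated by homogenising, sonicating and ultracentrifuging at 100000×g into HEPES/EDTA/NaCl buffer with protease inhibitors, were used for binding.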

[4] = Chemical stability assessment (UHPLC-UV purity loss on storage in solution); assay type: physicochemical; conditions: Chemical stability buffer system A: 20 mM phosphate buffer pH 7.4; ~300 μM
Procedure, shortened: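 Peptides dissolved at ~300 μM (purity-corrected) in 20 mM phosphate pH 7.4, or 8 mM phosphate pH 7.4 with 14 mg/ml propylene glycol and 5.5 mg/ml phenol; filtered, stored 28 days at 5 and 40 °C. Supernatant analysed by UHPLC-UV; stability expressed as relative purity loss.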

solubility at 24 h ([1]; 100 mM phosphate buffer pH 7.4 (solubility buffer system A), pH 7.4, Solubility buffer system A: 100 mM phosphate buffer pH 7.4, read-out: Soluble amount) [µg/mL] | solubility at 24 h ([1]; pH 7.4, Solubility buffer system C: 100 mM phosphate buffer pH 7.4, 2.7 mg/ml m-cresol, read-out: Soluble amount) [µg/mL] | Increase in FI [2] | Lag time before increase [2] [h] | IC50 [3] [nM] | Relative purity loss over 28 days at 40° C. [4] [%] | Soluble amount [1] [mg/mL] | solubility ([1]; pH 7.4, Soluble amount) [µg/mL] | Compound | Soluble amount ([1]; 24 h) [mg/mL] | solubility at 24 h ([1]; pH 7.4, Soluble amount) [µg/mL]
> 9500 | 7600 (≈ 1760 µM) | no | >45 | 133 | 7.4 |  |  | CC[C@H](C)[C@H](NC(=O)[C@H](CCCNC(=N)N)NC(=O)[C@H](CC(=O)O)NC(=O)[C@H](CCCCNC(=O)COCCOCCNC(=O)COCCOCCNC(=O)CC[C@H](NC(=O)CCCCCCCCCCCCCCCCC(=O)O)C(=O)O)NC(=O)C(C)(C)NC(=O)[C@@H](NC(=O)[C@H](CO)NC(=O)[C@H](CC(C)C)NC(=O)[C@H](CC(=O)O)NC(=O)[C@H](CO)NC(=O)[C@@H](NC(=O)[C@H](Cc1ccccc1)NC(=O)[C@@H](NC(=O)CNC(=O)[C@H](CCC(=O)O)NC(=O)C(C)(C)NC(=O)[C@@H](N)Cc1ccc(O)cc1)[C@@H](C)O)[C@@H](C)CC)[C@@H](C)CC)C(=O)N[C@@H](Cc1c[nH]cn1)C(=O)N[C@@H](CCC(N)=O)C(=O)NC(C)(C)C(=O)N[C@@H](CCC(=O)O)C(=O)N[C@@H](Cc1ccccc1)C(=O)N[C@H](C(=O)N[C@@H](CCC(=O)O)C(=O)N[C@@H](Cc1c[nH]c2ccccc12)C(=O)N[C@@H](CC(C)C)C(=O)N[C@@H](CC(C)C)C(=O)N[C@@H](C)C(=O)N[C@@H](CCC(N)=O)C(=O)N[C@@H](CCC(=O)O)C(=O)NCC(N)=O)[C@@H](C)CC [SEQ ID NO: 12, H2N-Y-Aib-E-G-T-F-I-S-D-L-S-I-Aib-K[{AEEA}2-gGlu-C18OH]-D-R-I-H-Q-Aib-E-F-I-E-W-L-L-A-Q-E-G-NH2] |  | 
 |  | no | >45 | 495 | 6.5 | 8.5 | > 9500 | CC[C@H](C)[C@H](NC(=O)[C@H](Cc1ccccc1)NC(=O)[C@H](CCC(=O)O)NC(=O)[C@H](CCC(=O)O)NC(=O)[C@H](CCC(N)=O)NC(=O)[C@H](Cc1c[nH]cn1)NC(=O)[C@@H](NC(=O)[C@H](CCCNC(=N)N)NC(=O)[C@H](CC(=O)O)NC(=O)[C@H](CCCCNC(=O)COCCOCCNC(=O)COCCOCCNC(=O)CC[C@H](NC(=O)CCCCCCCCCCCCCCCCC(=O)O)C(=O)O)NC(=O)C(C)(C)NC(=O)[C@@H](NC(=O)[C@H](CO)NC(=O)[C@H](CC(C)C)NC(=O)[C@H](CC(=O)O)NC(=O)[C@H](CO)NC(=O)[C@@H](NC(=O)[C@@](C)(CC)NC(=O)[C@@H](NC(=O)CNC(=O)[C@H](CCC(=O)O)NC(=O)C(C)(C)NC(=O)[C@@H](N)Cc1ccc(O)cc1)[C@@H](C)O)[C@@H](C)CC)[C@@H](C)CC)[C@@H](C)CC)C(=O)N[C@@H](CCC(=O)O)C(=O)N[C@@H](Cc1c[nH]c2ccccc12)C(=O)N[C@@H](CC(C)C)C(=O)N[C@@H](CC(C)C)C(=O)N[C@@H](C)C(=O)N[C@@H](CCC(N)=O)C(=O)N[C@@H](CCCNC(=N)N)C(=O)NCC(N)=O [SEQ ID NO: 15, H2N-Y-Aib-E-G-T-Iva-I-S-D-L-S-I-Aib-K[{AEEA}2-gGlu-C18OH]-D-R-I-H-Q-E-E-F-I-E-W-L-L-A-Q-R-G-NH2] |  | 

Compound | solubility at 24 h ([1]; 100 mM phosphate buffer pH 7.4 (solubility buffer system A), pH 7.4, Solubility buffer system A: 100 mM phosphate buffer pH 7.4, read-out: Soluble amount) [µg/mL] | solubility at 24 h ([1]; pH 7.4, Solubility buffer system C: 100 mM phosphate buffer pH 7.4, 2.7 mg/ml m-cresol, read-out: Soluble amount) [µg/mL] | Increase in FI [2] | Lag time before increase [2] [h] | IC50 [3] [nM] | Relative purity loss over 28 days at 40° C. [4] [%] | Soluble amount [1] [mg/mL] | solubility ([1]; pH 7.4, Soluble amount) [µg/mL] | Soluble amount ([1]; 24 h) [mg/mL] | solubility at 24 h ([1]; pH 7.4, Soluble amount) [µg/mL]
CC[C@H](C)[C@H](NC(=O)[C@H](Cc1ccccc1)NC(=O)[C@H](CCC(=O)O)NC(=O)[C@H](CCC(=O)O)NC(=O)[C@H](CCC(N)=O)NC(=O)[C@H](Cc1c[nH]cn1)NC(=O)[C@@H](NC(=O)[C@H](CCCNC(=N)N)NC(=O)[C@H](CC(=O)O)NC(=O)[C@H](CCCCNC(=O)COCCOCCNC(=O)COCCOCCNC(=O)CC[C@H](NC(=O)CCCCCCCCCCCCCCCCC(=O)O)C(=O)O)NC(=O)C(C)(C)NC(=O)[C@@H](NC(=O)[C@H](CO)NC(=O)[C@H](CC(C)C)NC(=O)[C@H](CC(=O)O)NC(=O)[C@H](CO)NC(=O)[C@@H](NC(=O)[C@H](Cc1ccccc1)NC(=O)[C@@H](NC(=O)CNC(=O)[C@H](CCC(=O)O)NC(=O)C(C)(C)NC(=O)[C@@H](N)Cc1ccc(O)cc1)[C@@H](C)O)[C@@H](C)CC)[C@@H](C)CC)[C@@H](C)CC)C(=O)N[C@@H](CCC(N)=O)C(=O)N[C@@H](Cc1c[nH]c2ccccc12)C(=O)N[C@@H](CC(C)C)C(=O)N[C@@H](CC(C)C)C(=O)N[C@@H](C)C(=O)N[C@@H](CCC(N)=O)C(=O)NCC(=O)N1CCC[C@H]1C(=O)N[C@@H](CO)C(=O)N[C@@H](CO)C(=O)NCC(=O)N[C@@H](C)C(=O)N1CCC[C@H]1C(=O)N1CCC[C@H]1C(=O)N1CCC[C@H]1C(=O)N[C@@H](CO)C(N)=O [SEQ ID NO: 35, H2N-Y-Aib-E-G-T-F-I-S-D-L-S-I-Aib-K[{AEEA}2-gGlu-C18OH]-DRIHQEEFIQWLLAQGPSSGAPPPS-NH2] (H-Y[Aib]EGTFISDLSI[Aib]K([AEEA-AEEA-γGlu-C18 diacid])DRIHQEEFIQWLLAQGPSSGAPPPS-NH2) |  |  | no | >45 | > 100 | 8.3 |  |  | >9.7 | > 9500
